Results as given in ChEMBL document CHEMBL1152529, “Synthesis, antifungal, haemolytic and cytotoxic activities of a series of bis(alkylpyridinium)alkanes” (Bioorg Med Chem, 2009).

Assays:
Cryptococcus neoformans = test: Antifungal activity against Cryptococcus neoformans ATCC 90112 after 48 to 72 hrs by broth microdilution method; type: functional
Candida albicans = test: Antifungal activity against Candida albicans ATCC 10231 after 48 to 72 hrs by broth microdilution method; type: functional
Pichia kudriavzevii = test: Antifungal activity against Candida krusei ATCC 6258 after 48 to 72 hrs by broth microdilution method; type: functional
Candida parapsilosis = test: Antifungal activity against Candida parapsilosis ATCC 22019 after 48 to 72 hrs by broth microdilution method; type: functional; settings: Lodderomyces parapsilosis
Nakaseomyces glabratus = test: Antifungal activity against Candida glabrata 04-202345 after 48 to 72 hrs by broth microdilution method; type: functional
Aspergillus fumigatus = test: Antifungal activity against Aspergillus fumigatus ATCC 204305 after 48 to 72 hrs by broth microdilution method; type: functional
Aspergillus flavus = test: Antifungal activity against Aspergillus flavus ATCC 204304 after 48 to 72 hrs by broth microdilution method; type: functional
Aspergillus terreus = test: Antifungal activity against Aspergillus terreus 05-202844 after 48 to 72 hrs by broth microdilution method; type: functional
Lomentospora prolificans = test: Antifungal activity against Scedosporium prolificans 05-203060 after 48 to 72 hrs by broth microdilution method; type: functional
Scedosporium apiospermum = test: Antifungal activity against Scedosporium apiospermum 05-203100 after 48 to 72 hrs by broth microdilution method; type: functional
Rhizopus arrhizus = test: Antifungal activity against Rhizopus oryzae 05-203111 after 48 to 72 hrs by broth microdilution method; type: functional
Exophiala spinifera = test: Antifungal activity against Exophiala spinifera 03-200803 after 48 to 72 hrs by broth microdilution method; type: functional
Curvularia australiensis = test: Antifungal activity against Bipolaris australiensis 03-201798 after 48 to 72 hrs by broth microdilution method; type: functional
[1] = biological target: Phospholipase A2, major isoenzyme (Sus scrofa, UniProt P00592); test: Inhibition of porcine pancreatic PLA2 after 1 hr by radiometric method
Phospholipase A2, major isoenzyme, sequence (P00592 whole entry): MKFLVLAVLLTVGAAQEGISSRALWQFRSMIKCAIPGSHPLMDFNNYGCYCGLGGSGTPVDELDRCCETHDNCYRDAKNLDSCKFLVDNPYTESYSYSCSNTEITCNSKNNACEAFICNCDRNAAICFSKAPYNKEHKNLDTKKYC

[2] = Inhibition of phospholipid fatty acyl chain hydrolysis activity of Cryptococcus neoformans var. grubii H99 PLB assessed as formation of radiolabeled free fatty acid at pH 4 by radiometric assay
[3] = Cytotoxicity against human erythrocytes assessed as hemolysis after 1 hr; type: cell-based, Erythrocyte
A549 = test: Cytotoxicity against human A549 cells after 3 hrs by MTS assay; type: cell-based; settings: A549, 3 h
MDCK = test: Cytotoxicity against MDCK cells after 3 hrs by MTS assay; type: cell-based; settings: Canis lupus familiaris
[4] = Selectivity index, ratio of HC50 for human erythrocytes to MIC for Cryptococcus neoformans ATCC 90112; type: functional
[5] = Selectivity index, ratio of HC50 for human erythrocytes to MIC for Candida albicans ATCC 10231; type: functional
[6] = Selectivity index, ratio of IC50 for human A549 cells to MIC for Cryptococcus neoformans ATCC 90112; type: functional
[7] = Selectivity index, ratio of IC50 for human A549 cells to MIC for Candida albicans ATCC 10231; type: functional
[8] = Selectivity index, ratio of IC50 for MDCK cells to MIC for Cryptococcus neoformans ATCC 90112; type: functional
[9] = Selectivity index, ratio of IC50 for MDCK cells to MIC for Candida albicans ATCC 10231; type: functional

MIC (Cryptococcus neoformans): 1.4 µM
MIC (Candida albicans): 2.7 µM
MIC (Pichia kudriavzevii): 11 µM
MIC (Candida parapsilosis): 1.4 µM
MIC (Nakaseomyces glabratus): 2.7 µM
MIC (Aspergillus fumigatus): 87.5 µM
MIC (Aspergillus flavus): 44 µM
MIC (Aspergillus terreus): 11 µM
MIC (Lomentospora prolificans): 2.7 µM
MIC (Scedosporium apiospermum): 5.5 µM
MIC (Rhizopus arrhizus): 2.7 µM
MIC (Exophiala spinifera): 0.7 µM
MIC (Curvularia australiensis): 11 µM
IC50 [1]: > 250 µM
IC50 [2]: 104 µM
SMILES: CCCCCc1cc[n+](CCCCCCCCCCCC[n+]2ccc(CCCCC)cc2)cc1.[Cl-].[Cl-]
MFC (Cryptococcus neoformans; Cryptococcus neoformans, ATCC 90112): 1.4 µM
MFC (Candida albicans; Candida albicans, ATCC 10231): 2.7 µM
MFC (Pichia kudriavzevii): 22 µM
MFC (Candida parapsilosis): 2.7 µM
MFC (Nakaseomyces glabratus): 2.7 µM
MFC (Aspergillus fumigatus): 87.5 µM
MFC (Aspergillus flavus): 87.5 µM
MFC (Aspergillus terreus): 22 µM
MFC (Lomentospora prolificans): 5.5 µM
MFC (Scedosporium apiospermum): 5.5 µM
MFC (Rhizopus arrhizus): 11 µM
MFC (Exophiala spinifera): 0.7 µM
MFC (Curvularia australiensis): 11 µM
HC50 at 1 h [3]: > 350 µM
IC50 (A549): 115 µM
IC50 (MDCK): 150 µM
Selectivity Index [4]: >100
Selectivity Index [5]: >100
Selectivity Index [6]: >40
Selectivity Index [7]: >40
Selectivity Index [8]: >40
Selectivity Index [9]: >40
